Experimental data taken from ChEMBL document CHEMBL2346647, “Identification and characterization of small molecule inhibitors of signal transducer and activator of transcription 3 (STAT3) signaling pathway by virtual screening” (Bioorg Med Chem Lett, 2013).
Activity calls are given as the source filed them. The calls are words filed in the database; no cut-off is given here.

Columns and labels:
[1] = test system: MDA-MB-468; test: Cytotoxicity against human MDA-MB-468 cells assessed as inhibition of cell viability at 10 uM; assay type: functional
[2] = biological target: Signal transducer and activator of transcription 3 (Homo sapiens) (UniProt P40763); test: Inhibition of IL-6-induced STAT3 pathway in human HepG2 cells at 10 uM by luciferase reporter gene assay; assay type: cell-based
[3] = biological target: Signal transducer and activator of transcription 3 (Homo sapiens) (UniProt P40763); test: Inhibition of IL-6-induced STAT3 phosphorylation at Tyr705 residue in human HepG2 cells pretreated for 6 to 48 hrs prior to IL-6 stimulation by Western blot analysis; assay type: cell-based
[4] = test system: HepG2; test: Effect on JAK2 protein level in human HepG2 cells pretreated at 50 uM for 48 hrs prior to IL-6 stimulation by Western blot analysis; assay type: functional, cell-based
[5] = test system: HepG2; test: Effect on SRC protein level in human HepG2 cells pretreated at 50 uM for 48 hrs prior to IL-6 stimulation by Western blot analysis; assay type: functional, cell-based
[6] = biological target: Proto-oncogene tyrosine-protein kinase Src (Homo sapiens) (UniProt P12931); test: Effect on SRC in human HepG2 cells pretreated at 50 uM for 6 to 48 hrs prior to IL-6 stimulation by Western blot analysis; assay type: cell-based
[7] = biological target: Tyrosine-protein kinase JAK2 (Homo sapiens) (UniProt O60674); test: Effect on JAK2 in human HepG2 cells pretreated at 50 uM for 48 hrs prior to IL-6 stimulation by Western blot analysis; assay type: cell-based
[8] = test system: HepG2; test: Effect on total STAT3 protein level in human HepG2 cells pretreated for 6 hrs prior to IL-6 stimulation by Western blot analysis; assay type: functional, cell-based
[9] = biological target: Signal transducer and activator of transcription 3 (Homo sapiens) (UniProt P40763); test: Inhibition of IL-6-induced STAT3 phosphorylation at Tyr705 residue in human HepG2 cells pretreated at 50 uM for 6 to 48 hrs prior to IL-6 stimulation by Western blot analysis; assay type: cell-based
[10] = test system: MDA-MB-468; test: Cytotoxicity against human MDA-MB-468 cells assessed as inhibition of cell viability; assay type: functional, cell-based
[11] = biological target: T1, Signal transducer and activator of transcription 1-alpha/beta (Homo sapiens) (UniProt P42224); test: Inhibition of IFN-gamma-induced STAT1 (unknown origin) at 10 uM
T1 sequence (whole entry): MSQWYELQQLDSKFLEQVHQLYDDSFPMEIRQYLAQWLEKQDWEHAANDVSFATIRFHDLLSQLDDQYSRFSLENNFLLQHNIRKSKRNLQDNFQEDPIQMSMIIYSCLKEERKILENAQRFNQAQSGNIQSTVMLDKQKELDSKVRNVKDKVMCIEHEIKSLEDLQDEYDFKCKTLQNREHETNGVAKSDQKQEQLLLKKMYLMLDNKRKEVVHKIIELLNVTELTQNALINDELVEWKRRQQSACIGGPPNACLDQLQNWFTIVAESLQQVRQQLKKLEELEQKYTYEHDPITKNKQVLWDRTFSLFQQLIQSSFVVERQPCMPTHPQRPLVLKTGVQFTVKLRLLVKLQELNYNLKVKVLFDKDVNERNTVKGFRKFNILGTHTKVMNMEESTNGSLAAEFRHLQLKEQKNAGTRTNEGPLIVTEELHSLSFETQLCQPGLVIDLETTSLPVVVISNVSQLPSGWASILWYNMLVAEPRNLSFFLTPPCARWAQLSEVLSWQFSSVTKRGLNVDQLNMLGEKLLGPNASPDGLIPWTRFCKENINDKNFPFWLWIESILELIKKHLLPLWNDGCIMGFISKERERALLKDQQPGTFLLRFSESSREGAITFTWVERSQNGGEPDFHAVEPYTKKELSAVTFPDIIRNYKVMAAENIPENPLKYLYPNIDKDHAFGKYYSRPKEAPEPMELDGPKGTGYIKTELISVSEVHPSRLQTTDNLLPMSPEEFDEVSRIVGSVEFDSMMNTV

Sequence of Signal transducer and activator of transcription 3 (Homo sapiens) (P40763 whole entry): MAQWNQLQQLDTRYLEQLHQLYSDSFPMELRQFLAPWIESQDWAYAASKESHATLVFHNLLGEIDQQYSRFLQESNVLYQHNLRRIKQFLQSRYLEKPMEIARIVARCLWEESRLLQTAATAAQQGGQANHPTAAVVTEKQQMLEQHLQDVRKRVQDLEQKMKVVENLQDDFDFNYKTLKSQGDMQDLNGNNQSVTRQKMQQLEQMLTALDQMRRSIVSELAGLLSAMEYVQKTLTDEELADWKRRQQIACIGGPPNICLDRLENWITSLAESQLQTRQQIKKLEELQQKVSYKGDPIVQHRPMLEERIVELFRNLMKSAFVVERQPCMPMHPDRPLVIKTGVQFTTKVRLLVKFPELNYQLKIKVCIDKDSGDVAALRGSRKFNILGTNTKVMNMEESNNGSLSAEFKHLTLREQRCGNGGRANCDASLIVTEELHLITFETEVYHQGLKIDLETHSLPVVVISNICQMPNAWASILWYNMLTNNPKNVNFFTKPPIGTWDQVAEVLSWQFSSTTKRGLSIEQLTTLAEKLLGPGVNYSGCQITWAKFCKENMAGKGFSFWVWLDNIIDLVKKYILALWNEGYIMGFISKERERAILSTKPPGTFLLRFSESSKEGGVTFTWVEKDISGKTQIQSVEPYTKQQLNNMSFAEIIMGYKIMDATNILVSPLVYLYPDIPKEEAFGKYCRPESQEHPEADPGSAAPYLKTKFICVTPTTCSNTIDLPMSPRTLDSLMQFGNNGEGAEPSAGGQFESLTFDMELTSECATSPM
Sequence of Proto-oncogene tyrosine-protein kinase Src (Homo sapiens) (P12931 2-536 limits assumed): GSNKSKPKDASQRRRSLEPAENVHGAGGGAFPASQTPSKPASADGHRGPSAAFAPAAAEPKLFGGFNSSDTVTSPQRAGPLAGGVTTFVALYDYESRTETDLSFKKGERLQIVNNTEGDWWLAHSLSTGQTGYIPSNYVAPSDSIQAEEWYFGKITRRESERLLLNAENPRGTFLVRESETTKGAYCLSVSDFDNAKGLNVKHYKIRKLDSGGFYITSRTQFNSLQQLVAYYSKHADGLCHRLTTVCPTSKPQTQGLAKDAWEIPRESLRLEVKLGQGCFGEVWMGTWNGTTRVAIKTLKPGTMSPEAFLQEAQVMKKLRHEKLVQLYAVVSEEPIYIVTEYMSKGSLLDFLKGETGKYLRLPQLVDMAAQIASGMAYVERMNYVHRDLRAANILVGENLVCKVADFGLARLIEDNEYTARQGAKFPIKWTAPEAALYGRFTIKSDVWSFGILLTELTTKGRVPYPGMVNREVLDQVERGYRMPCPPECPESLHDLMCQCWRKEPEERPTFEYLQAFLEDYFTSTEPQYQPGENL
Sequence of Tyrosine-protein kinase JAK2 (Homo sapiens) (O60674 whole entry): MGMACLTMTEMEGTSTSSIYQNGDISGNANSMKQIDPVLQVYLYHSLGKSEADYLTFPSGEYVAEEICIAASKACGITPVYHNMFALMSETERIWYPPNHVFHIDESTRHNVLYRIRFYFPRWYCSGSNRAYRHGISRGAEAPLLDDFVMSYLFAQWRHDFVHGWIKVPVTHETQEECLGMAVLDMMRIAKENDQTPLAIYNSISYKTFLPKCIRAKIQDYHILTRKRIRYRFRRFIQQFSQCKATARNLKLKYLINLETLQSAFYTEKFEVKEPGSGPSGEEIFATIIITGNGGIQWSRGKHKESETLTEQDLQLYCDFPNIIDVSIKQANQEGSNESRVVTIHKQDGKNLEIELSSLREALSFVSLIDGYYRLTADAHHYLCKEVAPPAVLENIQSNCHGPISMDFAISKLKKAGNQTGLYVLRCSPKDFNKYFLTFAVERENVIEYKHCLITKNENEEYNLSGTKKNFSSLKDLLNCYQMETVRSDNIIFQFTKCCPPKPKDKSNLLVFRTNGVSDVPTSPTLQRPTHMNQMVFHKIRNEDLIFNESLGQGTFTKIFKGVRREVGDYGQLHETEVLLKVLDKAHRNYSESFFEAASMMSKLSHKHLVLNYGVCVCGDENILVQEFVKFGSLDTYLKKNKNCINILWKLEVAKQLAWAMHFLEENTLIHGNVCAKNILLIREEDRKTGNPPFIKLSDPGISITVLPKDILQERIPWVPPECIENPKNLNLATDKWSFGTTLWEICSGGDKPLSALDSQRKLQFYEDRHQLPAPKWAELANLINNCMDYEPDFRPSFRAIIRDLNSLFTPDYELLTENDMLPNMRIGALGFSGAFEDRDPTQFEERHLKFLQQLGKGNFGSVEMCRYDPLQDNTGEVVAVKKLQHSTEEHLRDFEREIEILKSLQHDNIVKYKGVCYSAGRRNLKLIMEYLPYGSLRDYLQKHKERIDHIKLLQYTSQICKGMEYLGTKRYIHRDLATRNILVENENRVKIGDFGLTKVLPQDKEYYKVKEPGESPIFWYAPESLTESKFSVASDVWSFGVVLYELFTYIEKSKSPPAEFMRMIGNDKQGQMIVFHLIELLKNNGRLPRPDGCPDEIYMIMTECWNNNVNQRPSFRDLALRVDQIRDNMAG

SMILES | inhibition [2] [%] | inhibition at 10 µM [1] [%] | other results
COc1ccc(Cl)cc1CNCc1ccc2c(c1)OCO2 | -6.39 | -4.03 | –
NS(=O)(=O)c1ccc(NCc2cc(Cl)ccc2OCc2ccccc2)cc1 | 42.1 | 27.7 | Activity [4]: inactive; Activity [5]: inactive; Activity [6]: inactive; Activity [7]: inactive; Activity [8]: inactive; inhibition [9]: Active; IC50 [10]: 28.3 µM
Cc1cccc(NCc2cc(Br)ccc2OCc2ccc(Cl)cc2)c1C | 34.5 | -2.03 | –
Fc1ccc(COc2ccc(Cl)cc2CNCC2CCNCC2)cc1 | – | 38.8 | –
NC(=O)COc1ccc(Cl)cc1CNCCc1ccccc1 | 14.3 | -8.1 | –
C#CCOc1ccc(Cl)cc1CNc1ccccc1Cl | – | 15.5 | –
Clc1ccc(COc2ccccc2CNCc2ccccn2)cc1 | 15.6 | 18.9 | –
CC(O)CNCc1c(OCc2ccccc2Cl)ccc2ccccc12 (stereo not drawn) | – | 14.9 | –

The next lines start with results.

inhibition [2] [%] | SMILES | inhibition at 10 µM [1] [%] | other results
27.8 | Fc1ccc(COc2ccc(Cl)cc2CNCC2CCCO2)cc1 (stereo not drawn) | 27.5 | –
1.69 | NC(=O)COc1ccc(Cl)cc1CNCc1ccc(F)cc1 | 54.8 | –
41 | COc1cc(/C=C/C(=O)CC(=O)/C=C/c2ccc(O)c(OC)c2)ccc1O [CURCUMIN] | 3.88 | inhibition [3]: Dose-dependent effect
-8.72 | O=C(O)c1ccc(CNCc2ccccc2OCc2ccccc2)cc1 | -10.8 | –
20.2 | COCCNCc1ccc(OCc2cc(Cl)cc(Cl)c2)cc1 | 16.4 | –
44.9 | Oc1ccc(NCc2cc(Cl)ccc2OCc2ccc(Cl)cc2)cc1 | 46.8 | Activity [4]: inactive; Activity [5]: inactive; Activity [6]: inactive; Activity [7]: inactive; Activity [8]: inactive; inhibition [9]: Active; IC50 [10]: 18.8 µM; inhibition [11]: 14.3%
33.2 | OCCNCc1cc(Br)ccc1OCc1ccc(Cl)cc1 | 26.6 | IC50 [10]: 23 µM
36.6 | Clc1ccc(OCc2ccccc2Cl)c(CNCc2ccccc2)c1 | 10.7 | –
3.63 | NC(=O)COc1ccc(Cl)cc1CNCCN1CCOCC1 | -2.61 | –
